Measurements reported in patent US10857234B2, “Carbonic anhydrase IX inhibitor conjugates and uses thereof” (Endocyte, Inc., priority 2016, dated 2020).

Key:
CA IX [1] = target: T1, CA IX (Homo sapiens, UniProt Q16790); experiment: CA IX competitive binding assay (pH 6.8 vs. 7.4 buffers + Zn2+); settings: HT29 cells, 2 nM 125I-EC2674, 2 hr, 37° C.
T1 construct: endogenous in cells; host or cells: HT29 cells under hypoxia (1.3% O2)
Description: HT29 cells were seeded into 24-well plates at 0.5×10^6 cells per well in McCoy's 5A medium containing 10% fetal bovine serum (FBS) and were allowed to attach for 48 h in an incubator with an atmosphere of 5% CO2/95% air and 37° C. The evening prior to the binding assay, cells were placed in a Hypoxylab workstation set at 10 mm Hg (1.3% O2), 5% CO2, and 37° C. (hypoxic conditions). A single concentration of ^125I-CAIX radioligand was used (2 nM). Serial dilutions of competitors (EC2674 and EC2711) were prepared in McCoy's 5A medium/10% FBS. Binding solutions (500 μL) containing the radioligand and competitor dilutions were placed on the cells, and cells were incubated in the Hypoxylab workstation for 2 h under hypoxic conditions. Cells were then removed from the Hypoxylab and were washed 3 times with ice-cold PBS, pH 7.4. Cells were solubilized with 500 μL of 0.1N NaOH/0.1% Triton X-100. Cell lysates (450 μL) were counted in a Wizard2 gamma counter (Perkin Elmer). […]
Following the procedure for the previous competitive binding assay (Example 22), the CAIX Competitive Binding Assay (pH 6.8 vs. 7.4 Buffers+Zn^2+) was carried out with the following modifications from Example 22. […] Only the homologous cold-iodine labeled CAIX ligand, EC2674, was assessed for competitive binding.

CA IX [2] = target: T1, CA IX; experiment: CAIX competitive binding assay
Description: HT29 cells were seeded into 24-well plates at 0.5×10^6 cells per well in McCoy's 5A medium containing 10% fetal bovine serum (FBS) and were allowed to attach for 48 h in an incubator with an atmosphere of 5% CO2/95% air and 37° C. The evening prior to the binding assay, cells were placed in a Hypoxylab workstation set at 10 mm Hg (1.3% O2), 5% CO2, and 37° C. (hypoxic conditions). A single concentration of ^125I-CAIX radioligand was used (2 nM). Serial dilutions of competitors (EC2674 and EC2711) were prepared in McCoy's 5A medium/10% FBS. Binding solutions (500 μL) containing the radioligand and competitor dilutions were placed on the cells, and cells were incubated in the Hypoxylab workstation for 2 h under hypoxic conditions. Cells were then removed from the Hypoxylab and were washed 3 times with ice-cold PBS, pH 7.4. Cells were solubilized with 500 μL of 0.1N NaOH/0.1% Triton X-100. Cell lysates (450 μL) were counted in a Wizard2 gamma counter (Perkin Elmer). CPM values for each competitor concentration were normalized to values for radioligand binding in the absence of competitor.

| IC50 (CA IX [1]; 1.3% O2, pH 6.8 buffer (20 mM BES, 140 mM NaCl, 1 mM ZnSO4)) [nM] | IC50 (CA IX [1]; 1.3% O2, pH 7.4 buffer (20 mM Tris, 140 mM NaCl, 1 mM ZnSO4)) [nM] | IC50 (CA IX [2]; HT29 cells, 2 nM 125I-EC2674, 2 hr, 37° C., 1.3% O2, McCoy's Medium+10% FBS, read-out: IC50) [nM] | SMILES | IC50 (CA IX [2]) [nM] |
| --- | --- | --- | --- | --- |
| 62.5 | 66.5 | 852 | NS(=O)(=O)c1ccc(NC(=O)CN(CCN(CC(=O)Nc2ccc(S(N)(=O)=O)cc2)CC(=O)N[C@@H](CNC(=O)CCc2cc(I)c(O)c(I)c2)C(=O)O)CC(=O)O)cc1 [EC2674] | – |
| – | – | – | CCCC(=O)OCN(C(=O)[C@@H](NC(=O)[C@H]1CCCCN1C)C(C)CC)[C@H](C[C@@H](OC(C)=O)c1nc(C(=O)N[C@@H](Cc2ccc(O)cc2)C[C@H](C)C(=O)NNC(=O)OCCSSC[C@H](NC(=O)[C@H](CC(=O)O)NC(=O)[C@H](CC(=O)O)NC(=O)[C@H](CC(=O)O)NC(=O)CN(CCN(CC(=O)O)CC(=O)Nc2ccc(S(N)(=O)=O)cc2)CC(=O)Nc2ccc(S(N)(=O)=O)cc2)C(=O)O)cs1)C(C)C (stereo partly shown) [EC2711] | 9 |
